41 compounds from patent US20260116874A1, “HETEROAROMATIC INDOLESULFONAMIDES” (SEED Therapeutics, Inc., priority 2023, published 2026) can be followed below.

This test deals with HCT116 colorectal cells. As to the kind of experiment: Cell viability assay (CellTiter-Glo) in HCT116 cells. The class given is cell-based. To be noted: Homo sapiens, HCT-116, 72h, CellTiter-Glo, read-out: HCT116 Assay (IC50). As for the experimental part: HCT116 colorectal cells were used in these experiments. HCT116 cells were obtained from ATCC. The CellTiter-Glo® Luminescent Cell Viability Assay Reagent was obtained from Promega.
Into a 96-well plate, 3000 HCT116 cells were seeded with 100 μL of media (McCoy's 5A Medium supplemented with 10% FBS, 100 units penicillin, and 100 μg streptomycin per mL) 24h before the experiment. For compound treatment, the liquid handling system-Pico machine was used to prepare all the compounds. Each master plate contained serial dilution of 2 compounds, including the control compound E7820. 10 mM compound stock was added to each well of the assay plate to give final concentrations of […], 0.003, 0.002 and 0 μM. Each concentration was tested in triplicate. After 72h, cell viability was determined using CellTiter-Glo Luminescent Cell Viability Assay Reagent following the manufacturer's recommended protocol. Briefly, equilibrate the assay plate and its contents at room temperature for approximately 30 minutes. 100 μL of CellTiter-Glo reagent was added to each well of the assay plate and the contents were mixed for 2 minutes at 500 rpm on an orbital shaker to induce cell lysis (Fisherbrand). The plate was incubated at room temperature for 10 minutes to stabilize luminescent signal. Then the plate was immediately placed in a plate reader (PerkinElmer Multimode Plate Reader Envision2105) and the luminescence signal (0.5 second per well integration time) was determined. IC50 values were calculated using Graphpad Prism 9 software.
Cell viability assays were performed to compare the potency of Compound 1 to Compound 143.
As a reminder, the IC50 is the concentration at which inhibition is half-maximal. `COc1ncc(S(=O)(=O)Nc2ccc(C)c3c(C#N)c[nH]c23)s1` [Compound 90]: the IC50 was less than 0.5 µM.

As for `Cc1ccc(NS(=O)(=O)c2cnc(C(C)N(C)C)s2)c2[nH]cc(C#N)c12` (centres unmarked) [Compound 23, N-(3-cyano-4-methyl-1H-indol-7-yl)-2-(1-(dimethylamino)ethyl)thiazole-5-sulfonamide], the IC50 is 0.5 to 1 µM. In the case of `Cc1ccc(NS(=O)(=O)c2cnc(C3CCNCC3)s2)c2[nH]cc(C#N)c12` [Compound 26, N-(3-cyano-4-methyl-1H-indol-7-yl)-2-(4-piperidyl)thiazole-5-sulfonamide], the IC50 was greater than 1 µM. Turning to `Cc1ccc(NS(=O)(=O)c2cnc(C3CCCN(C)C3)s2)c2[nH]cc(C#N)c12` (centres unmarked) [Compound 28, N-(3-cyano-4-methyl-1H-indol-7-yl)-2-(1-methylpiperidin-3-yl)thiazole-5-sulfonamide], the IC50 is greater than 1 µM.

Consider `Cc1ccc(NS(=O)(=O)c2cnc(CN3CCC(C#N)C3)s2)c2[nH]cc(C#N)c12` (centres unmarked) [Compound 24, N-(3-cyano-4-methyl-1H-indol-7-yl)-2-((3-cyanopyrrolidin-1-yl)methyl)thiazole-5-sulfonamide], for which the IC50 was in the range of 0.5 to 1 µM.

In the case of `O=S(=O)(Nc1ccc(Cl)c2c(Cl)c[nH]c12)c1cnc(C(F)(F)F)s1` [Compound 11, N-(3,4-dichloro-1H-indol-7-yl)-2-(trifluoromethyl)thiazole-5-sulfonamide], the IC50 is greater than 1 µM. The result for `Cc1ccc(NS(=O)(=O)c2ccc3nc(C#N)cn3c2)c2[nH]cc(C#N)c12` [Compound 42] reads greater than 1 µM; that for `Cc1ccc(NS(=O)(=O)c2cc3n(n2)CCC3)c2[nH]cc(C#N)c12` [Compound 44], 0.5 to 1 µM; that for `CC(=O)N1CCC(c2ncc(S(=O)(=O)Nc3ccc(C)c4c(C#N)c[nH]c34)s2)CC1` [Compound 29, 2-(1-acetyl-4-piperidyl)-N-(3-cyano-4-methyl-1H-indol-7-yl)thiazole-5-sulfonamide], greater than 1 µM. The result for `Cc1ccc(NS(=O)(=O)c2cnc(C3CCCNC3)s2)c2[nH]cc(C#N)c12` (centres unmarked) [Compound 27, N-(3-cyano-4-methyl-1H-indol-7-yl)-2-(piperidin-3-yl)thiazole-5-sulfonamide] reads greater than 1 µM; that for `Cc1ccc(NS(=O)(=O)c2cnc(C3(N4CCOCC4)CCC3)s2)c2[nH]cc(C#N)c12` [Compound 32, N-(3-cyano-4-methyl-1H-indol-7-yl)-2-(1-morpholinocyclobutyl)thiazole-5-sulfonamide], 0.5 to 1 µM. Turning to `Cc1ncc(CS(=O)(=O)Nc2ccc(C)c3c(C#N)c[nH]c23)s1` [Compound 8, N-(3-cyano-4-methyl-1H-indol-7-yl)-1-(2-methylthiazol-5-yl)methanesulfonamide], the IC50 is greater than 1 µM. Take `Cc1ccc(NS(=O)(=O)c2cnc(NC(=O)OC(C)(C)C)s2)c2[nH]cc(C#N)c12` [Compound 18, tert-butyl (5-(N-(3-cyano-4-methyl-1H-indol-7-yl)sulfamoyl)thiazol-2-yl)carbamate]: the IC50 lay within 0.5 to 1 µM.

On to `Cc1ccc(NS(=O)(=O)c2cnc(C(C)(C)O)s2)c2[nH]cc(C#N)c12` [Compound 35, N-(3-cyano-4-methyl-1H-indol-7-yl)-2-(1-hydroxy-1-methyl-ethyl)thiazole-5-sulfonamide], for which the IC50 fell in the range of 0.5 to 1 µM. On to `Cc1ccc(NS(=O)(=O)c2cnc(N)s2)c2[nH]cc(C#N)c12` [Compound 19, 2-amino-N-(3-cyano-4-methyl-1H-indol-7-yl)thiazole-5-sulfonamide], for which the IC50 fell in the range of 0.5 to 1 µM. For the compound `Cc1ccc(NS(=O)(=O)c2cnc(C3CCN(C)CC3)s2)c2[nH]cc(C#N)c12` [Compound 12, N-(3-cyano-4-methyl-1H-indol-7-yl)-2-(1-methyl-4-piperidyl)thiazole-5-sulfonamide], the IC50 is greater than 1 µM. The result for `O=S(=O)(Nc1cccc2c(Cl)c[nH]c12)c1cnc(C(F)F)s1` [Compound 13, N-(3-chloro-1H-indol-7-yl)-2-(difluoromethyl)thiazole-5-sulfonamide] reads 0.5 to 1 µM; that for `Cc1ccc(NS(=O)(=O)c2ccn3cc(C#N)nc3c2)c2[nH]cc(C#N)c12` [Compound 40], 0.5 to 1 µM.

For `Cc1ccc(NS(=O)(=O)c2cnc(C3CCN(C(=O)OC(C)(C)C)CC3)s2)c2[nH]cc(C#N)c12` [Compound 25, tert-butyl 4-[5-[(3-cyano-4-methyl-1H-indol-7-yl)sulfamoyl]thiazol-2-yl]piperidine-1-carboxylate], the IC50 is greater than 1 µM. The result for `Cc1ccc(NS(=O)(=O)c2cnn3c2CCC3)c2[nH]cc(C#N)c12` [Compound 43] reads 0.5 to 1 µM; that for `O=S(=O)(Nc1ccc(Cl)c2c(Cl)c[nH]c12)c1cscn1` [Compound 84], 0.5 to 1 µM; that for `Cc1ccc(NS(=O)(=O)c2cnc(N(C)S(C)(=O)=O)s2)c2[nH]cc(C#N)c12` [Compound 91], less than 0.5 µM. For the compound `O=S(=O)(Nc1ccc(Cl)c2c(Cl)c[nH]c12)c1cnc(C2(N3CCOCC3)CCC2)s1` [Compound 75], the IC50 was in the range of 0.5 to 1 µM.

As to `Cc1nc(C)c(S(=O)(=O)Nc2ccc(C)c3c(C#N)c[nH]c23)s1` [Compound 21, N-(3-cyano-4-methyl-1H-indol-7-yl)-2,4-dimethylthiazole-5-sulfonamide], the IC50 is 0.5 to 1 µM. The result for `[2H]C([2H])([2H])c1ncc(S(=O)(=O)Nc2ccc(C)c3c(Cl)c[nH]c23)s1` [Compound 92] reads 0.5 to 1 µM. In the case of `O=S(=O)(Nc1ccc(Cl)c2cc[nH]c12)c1cnc(C2CCCNC2)s1` (centres unmarked) [Compound 15, N-(4-chloro-1H-indol-7-yl)-2-(piperidin-3-yl)thiazole-5-sulfonamide], the IC50 is 0.5 to 1 µM. On to `Cc1ccc(NS(=O)(=O)c2ccc3nccn3c2)c2[nH]cc(C#N)c12` [Compound 41], for which the IC50 was in the range of 0.5 to 1 µM. The result for `CC(=O)Nc1ncc(S(=O)(=O)Nc2ccc(C)c3c(C#N)c[nH]c23)s1` [Compound 34, N-(5-(N-(3-cyano-4-methyl-1H-indol-7-yl)sulfamoyl)thiazol-2-yl)acetamide] reads 0.5 to 1 µM; that for `Cc1ccc(NS(=O)(=O)c2cnc(OCC(=O)N3CCCC3C#N)s2)c2[nH]cc(C#N)c12` (centres unmarked) [Compound 65], greater than 1 µM.

As to `Cc1ncc(S(=O)(=O)Nc2ccc(Cl)c3c(Cl)c[nH]c23)s1` [Compound 4, N-(3,4-dichloro-1H-indol-7-yl)-2-methyl-thiazole-5-sulfonamide], the IC50 lay in the range of 0.5 to 1 µM. Consider `Cc1ncc(S(=N)(=O)Nc2ccc(C)c3c(C#N)c[nH]c23)s1` (centres unmarked) [Compound 33, 4-methyl-7-[[(2-methylthiazol-5-yl)sulfonimidoyl]amino]-1H-indole-3-carbonitrile], for which the IC50 was greater than 1 µM.

Consider `Cc1ccc(NS(=O)(=O)c2cscn2)c2[nH]cc(C#N)c12` [Compound 85], for which the IC50 lay within 0.5 to 1 µM. The result for `Cc1ccc(NS(=O)(=O)c2cnc(C(F)(F)F)s2)c2[nH]cc(C#N)c12` [Compound 10, N-(3-cyano-4-methyl-1H-indol-7-yl)-2-(trifluoromethyl)thiazole-5-sulfonamide] reads greater than 1 µM; that for `COCCc1ncc(S(=O)(=O)Nc2ccc(C)c3c(C#N)c[nH]c23)s1` [Compound 7, N-(3-cyano-4-methyl-1H-indol-7-yl)-2-(2-methoxyethyl)thiazole-5-sulfonamide], less than 0.5 µM; that for `CN1CCCC(c2ncc(S(=O)(=O)Nc3ccc(Cl)c4cc[nH]c34)s2)C1` (centres unmarked) [Compound 16, N-(4-chloro-1H-indol-7-yl)-2-(1-methylpiperidin-3-yl)thiazole-5-sulfonamide], greater than 1 µM. `Cc1ncc(S(=O)(=O)N(C)c2ccc(C)c3c(C#N)c[nH]c23)s1` [Compound 30, N-(3-cyano-4-methyl-1H-indol-7-yl)-N,2-dimethyl-thiazole-5-sulfonamide]: the IC50 is greater than 1 µM. The result for `Cc1ncc(S(=O)(=O)Nc2cccc3c(Cl)c[nH]c23)s1` [Compound 9, N-(3-chloro-1H-indol-7-yl)-2-methylthiazole-5-sulfonamide] reads 0.5 to 1 µM.

Consider `Cc1ncc(S(=O)(=O)Nc2ccc(Cl)c3c(C#N)c[nH]c23)s1` [Compound 6, N-(4-chloro-3-cyano-1H-indol-7-yl)-2-methyl-thiazole-5-sulfonamide], for which the IC50 was less than 0.5 µM.

As to `Cc1ccc(NS(=O)(=O)c2cnc(N3CCOCC3)s2)c2[nH]cc(C#N)c12` [Compound 17, N-(3-cyano-4-methyl-1H-indol-7-yl)-2-morpholino-thiazole-5-sulfonamide], the IC50 fell in the range of 0.5 to 1 µM. With `Cc1ncc(S(=O)(=O)Nc2ccc(C)c3c(C(F)F)c[nH]c23)s1` [Compound 5, N-(3-(difluoromethyl)-4-methyl-1H-indol-7-yl)-2-methylthiazole-5-sulfonamide], the IC50 fell in the range of 0.5 to 1 µM. The result for `C#Cc1c[nH]c2c(NS(=O)(=O)c3cnc(C)s3)ccc(C)c12` [Compound 104] reads greater than 1 µM.
